Like-named read-outs stand apart in the source and are kept apart here.
What was measured:
[1] = system: Key Broadleaf Weed and Crop Species; test: Post-emergent Test II herbicidal activity (Table 5); format: in vivo; settings: post-emergence, 336 h, post-emergent, 14 days after application; for pest or weed control at 70 g/ha: 70 g ai/ha; for pest or weed control at 140 g/ha: 140 g ai/ha
Method in brief: (§1)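 Greenhouse post-emergent assay: seedlings (first/second true leaf) in Metro-Mix 360 were sprayed at 187 L/ha at a top rate plus twofold dilutions down to 1/16×; solvent-blank controls were included. Percent visual injury was read at 14 d.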

[2] = system: Key Grass and Sedge Weeds as well as Grass Crops; test: Post-emergent Test II herbicidal activity (Table 6); format: in vivo; settings: post-emergence, 336 h; for pest or weed control at 70 g/ha: application rate 70 g ai/ha; for pest or weed control at 140 g/ha: application rate 140 g ai/ha
Method in brief: as §1

[3] = ABUTH: velvetleaf (Abutilon theophrasti), read-out: Visual Growth Reduction (%) 14 Days After Application ABUTH
[4] = AMARE: redroot pigweed (Amaranthus retroflexus), read-out: Visual Growth Reduction (%) 14 Days After Application AMARE
[5] = BRSNN: oilseed-rape, canola (Brassica napus), read-out: Visual Growth Reduction (%) 14 Days After Application BRSNN
[6] = CHEAL: lambsquarters (Chenopodium album), read-out: Visual Growth Reduction (%) 14 Days After Application CHEAL
[7] = EPHHL: wild poinsettia (Euphorbia heterophylla), read-out: Visual Growth Reduction (%) 14 Days After Application EPHHL
[8] = HELAN: sunflower (Helianthus annuus), read-out: Visual Growth Reduction (%) 14 Days After Application HELAN
[9] = VIOTR: wild pansy (Viola tricolor), read-out: Visual Growth Reduction (%) 14 Days After Application VIOTR
[10] = Triticum aestivum, TRZSS (wheat), read-out: Visual Growth Reduction (%) 14 Days After Application, TRZSS
[11] = CYPES: yellow nutsedge (Cyperus esculentus), read-out: Visual Growth Reduction (%) 14 Days After Application, CYPES
[12] = DIGSA: crabgrass (Digitaria sanguinalis), read-out: Visual Growth Reduction (%) 14 Days After Application, DIGSA
[13] = ECHCG: barnyardgrass (Echinochloa crus-galli), read-out: Visual Growth Reduction (%) 14 Days After Application, ECHCG
[14] = ORYSA: rice (Oryza sativa), read-out: Visual Growth Reduction (%) 14 Days After Application, ORYSA
[15] = SETFA: giant foxtail (Setaria faberi), read-out: Visual Growth Reduction (%) 14 Days After Application, SETFA
[16] = SORVU: grain sorghum (Sorghum vulgare), read-out: Visual Growth Reduction (%) 14 Days After Application, SORVU
[17] = ZEAMX: maize, corn (Zea mays), read-out: Visual Growth Reduction (%) 14 Days After Application, ZEAMX

Row | SMILES | pest or weed control at 70 g/ha [1, 3] [%] | pest or weed control at 140 g/ha [1, 3] [%] | pest or weed control at 70 g/ha [1, 4] [%] | pest or weed control at 140 g/ha [1, 4] [%] | pest or weed control at 70 g/ha [1, 5] [%] | pest or weed control at 140 g/ha [1, 5] [%] | pest or weed control at 70 g/ha [1, 6] [%] | pest or weed control at 140 g/ha [1, 6] [%] | pest or weed control at 70 g/ha [1, 7] [%] | pest or weed control at 140 g/ha [1, 7] [%] | pest or weed control at 70 g/ha [1, 8] [%] | pest or weed control at 140 g/ha [1, 8] [%] | pest or weed control at 70 g/ha [1, 9] [%] | pest or weed control at 140 g/ha [1, 9] [%] | pest or weed control at 70 g/ha [2, 10] [%] | pest or weed control at 140 g/ha [2, 10] [%] | pest or weed control at 70 g/ha [2, 11] [%] | pest or weed control at 140 g/ha [2, 11] [%] | pest or weed control at 70 g/ha [2, 12] [%] | pest or weed control at 140 g/ha [2, 12] [%] | other results
1 | Nc1c(F)c(-c2cc(F)c(I)cc2F)nc(C(=O)O)c1Cl [Compound 69] | 85 to 94 | 85 to 94 | 95 to 100 | 95 to 100 | 95 to 100 | 95 to 100 | 95 to 100 | 95 to 100 | 95 to 100 | 95 to 100 | 95 to 100 | 95 to 100 | 95 to 100 | 95 to 100 | 60 to 74 | 85 to 94 | 45 to 59 | 95 to 100 | 95 to 100 | 95 to 100 | pest or weed control at 70 g/ha [2, 13]: 95 to 100%; pest or weed control at 140 g/ha [2, 13]: 95 to 100%; pest or weed control at 70 g/ha [2, 14]: 0 to 29%; pest or weed control at 140 g/ha [2, 14]: 0 to 29%; pest or weed control at 70 g/ha [2, 15]: 95 to 100%; pest or weed control at 140 g/ha [2, 15]: 95 to 100%; pest or weed control at 70 g/ha [2, 16]: 95 to 100%; pest or weed control at 140 g/ha [2, 16]: 95 to 100%; pest or weed control at 70 g/ha [2, 17]: 75 to 84%; pest or weed control at 140 g/ha [2, 17]: 75 to 84%
2 | COC(=O)c1nc(-c2ccc(Br)c(F)c2)c(Cl)c(N)c1Cl [Compound 73, Methyl 4-amino-6-(4-bromo-3-fluorophenyl)-3,5-dichloropicolinate] | 85 to 94 | 85 to 94 | 95 to 100 | 95 to 100 | 95 to 100 | 95 to 100 | 85 to 94 | 85 to 94 | 45 to 59 | 60 to 74 | 95 to 100 | 95 to 100 | 45 to 59 | 45 to 59 | 60 to 74 | 60 to 74 | 95 to 100 | 95 to 100 | 0 to 29 | 45 to 59 | pest or weed control at 70 g/ha [2, 13]: 0 to 29%; pest or weed control at 140 g/ha [2, 13]: 60 to 74%; pest or weed control at 70 g/ha [2, 14]: 0 to 29%; pest or weed control at 140 g/ha [2, 14]: 0 to 29%; pest or weed control at 70 g/ha [2, 15]: 60 to 74%; pest or weed control at 140 g/ha [2, 15]: 60 to 74%; pest or weed control at 70 g/ha [2, 16]: 85 to 94%; pest or weed control at 140 g/ha [2, 16]: 85 to 94%; pest or weed control at 70 g/ha [2, 17]: 60 to 74%; pest or weed control at 140 g/ha [2, 17]: 60 to 74%
3 | Nc1cc(-c2ccc(Br)cc2F)nc(C(=O)O)c1Cl [Compound 74] | 95 to 100 | 95 to 100 | 95 to 100 | 95 to 100 | 85 to 94 | 85 to 94 | 95 to 100 | 95 to 100 | 95 to 100 | 95 to 100 | 95 to 100 | 95 to 100 | 95 to 100 | 95 to 100 | 45 to 59 | 60 to 74 | 95 to 100 | 95 to 100 | 85 to 94 | 85 to 94 | pest or weed control at 70 g/ha [2, 13]: 85 to 94%; pest or weed control at 140 g/ha [2, 13]: 85 to 94%; pest or weed control at 70 g/ha [2, 14]: 0 to 29%; pest or weed control at 140 g/ha [2, 14]: 30 to 44%; pest or weed control at 70 g/ha [2, 15]: 75 to 84%; pest or weed control at 140 g/ha [2, 15]: 85 to 94%; pest or weed control at 70 g/ha [2, 16]: 85 to 94%; pest or weed control at 140 g/ha [2, 16]: 85 to 94%; pest or weed control at 70 g/ha [2, 17]: 75 to 84%; pest or weed control at 140 g/ha [2, 17]: 75 to 84%
